Several values for one entry are separate records, joined by “and”; a condition that tells them apart may be missing. Equal entries are not always repeated. Where two headings read alike, the source gives them in different places.
Tests used:
Human Androgen Receptor = Human Androgen Receptor (Homo sapiens (Human), UniProt P10275); experiment: Androgen receptor assay: [3H]R1881 displacement, cytosol of HEK-293 cells transfected with hAR (hydroxylapatite assay); type: binding
[1] = system: Shionogi mouse mammary carcinoma cells; experiment: In vitro androgenic/antiandrogenic activity: proliferation of Shionogi cells with or without DHT; type: cell-based
[2] = system: castrated (CX) immature male rats; experiment: Systemic androgenic (agonistic) activity in orchidectomized (CX) immature male rats; type: in vivo, rat; settings: 0.1 mg/rat/po, 7 days; for CX Agonistic activity % Stimulation Bulbo: bulbocavernosus muscles weight; for CX Agonistic activity % Stimulation SV: seminal vesicles weight; for CX Agonistic activity % Stimulation Prostate: ventral prostate weight
Method: Immature male rats (Crl:CD(SD)Br) 22 to 24-day old weighting 60-80 g at start of treatment were obtained from Charles-River, Inc. (St-Constant, Quebec, Canada) and housed up to 5 per cage in plastic bins in a temperature (23±1° C.)- and light (12 h light/day, lights on at 7 h15)-controlled environment. The rats were fed rodent chow and tap water ad libitum. […] The day following their arrival, the designed animals were orchidectomized (CX) under Isoflurane anesthesia (Study Day 1) via the scrotal route and were then randomly assigned to groups of 3 to 5 animals. At the time of orchidectomy, one silastic implant of dihydrotestosterone (DHT; 1 cm length of pure DHT in silastic tubing having inner and outer diameter of 0.078 and 0.125 inches, respectively), was inserted subcutaneously in the dorsal area of animals assigned to the evaluation of antiandrogenic activity. In the case of intact animal experiments, the orchidectomy and the silastic implant installation are omitted.
Tested compounds were administered orally once daily for 7 days from Study Day 2 to Study Day 8 at doses generally ranging from 0.1 and 0.5 mg/animal. Compounds were either solubilized in dimethylsulfoxide (DMSO, 10% final concentration) and were administered as a solution/suspension in 0.9% NaCl-1% gelatin or were administered as suspensions in 0.4% aqueous methylcellulose. Animals of the control groups received the corresponding vehicle alone during the 7-day period. Some animals were treated with the antiandrogen Flutamide or Casodex as reference. The animals under isoflurane anesthesia were killed by cervical dislocation on day 9 of the study, approximately 24 h after the last dosing. The ventral prostate, seminal vesicles and bulbocavernosus muscles were rapidly dissected and weighed.
For calculations with intact animals, control DHT is replaced by control intact and the % stimulation is subtracted by 100%. W is the weight of the prostate, seminal vesicles or bulbocavernosus muscles. Discussion

[3] = relative binding affinity, R1881 = 100, transfected cells
[4] = relative binding affinity, R1881 = 100, […]
[5] = Mus musculus, read-out: Shionogi Antiandrogenic Activity IC50, DHT (0.3 nM)-stimulated cell number

Sequence of Human Androgen Receptor (P10275 whole entry): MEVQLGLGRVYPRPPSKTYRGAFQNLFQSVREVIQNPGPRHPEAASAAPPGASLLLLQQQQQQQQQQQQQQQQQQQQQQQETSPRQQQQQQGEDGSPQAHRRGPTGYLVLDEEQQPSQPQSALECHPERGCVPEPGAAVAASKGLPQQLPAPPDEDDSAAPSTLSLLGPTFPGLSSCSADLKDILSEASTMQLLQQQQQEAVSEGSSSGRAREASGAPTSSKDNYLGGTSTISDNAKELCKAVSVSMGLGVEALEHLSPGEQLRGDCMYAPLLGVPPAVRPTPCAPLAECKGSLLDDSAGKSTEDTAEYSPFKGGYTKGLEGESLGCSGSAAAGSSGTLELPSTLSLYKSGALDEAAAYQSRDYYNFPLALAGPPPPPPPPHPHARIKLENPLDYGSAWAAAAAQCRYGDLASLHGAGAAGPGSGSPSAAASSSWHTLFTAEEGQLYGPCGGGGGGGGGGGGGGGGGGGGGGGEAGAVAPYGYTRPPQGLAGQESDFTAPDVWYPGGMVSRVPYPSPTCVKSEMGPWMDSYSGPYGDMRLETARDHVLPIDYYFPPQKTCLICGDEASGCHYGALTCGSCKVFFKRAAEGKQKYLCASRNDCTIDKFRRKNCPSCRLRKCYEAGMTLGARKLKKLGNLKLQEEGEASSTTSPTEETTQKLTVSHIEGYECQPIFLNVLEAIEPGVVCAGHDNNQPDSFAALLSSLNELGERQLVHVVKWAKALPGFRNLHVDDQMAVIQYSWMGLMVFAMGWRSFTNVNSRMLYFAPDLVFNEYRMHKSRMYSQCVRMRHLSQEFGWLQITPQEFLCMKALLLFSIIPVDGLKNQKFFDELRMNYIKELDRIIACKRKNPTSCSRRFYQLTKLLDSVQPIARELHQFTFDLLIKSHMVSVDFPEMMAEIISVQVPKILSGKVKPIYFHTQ

SMILES | Human Androgen Receptor Binding RBA (%) R1881 = 100 (Human Androgen Receptor; [3]) | Human Androgen Receptor Binding RBA (%) R1881 = 100 (Human Androgen Receptor; [4]) | IC50 [1, 5] [nM] | other results
CC1(C)C(=O)N(c2ccc(C#N)c(C(F)(F)F)c2)C(=S)N1CCCOc1ccc(CN2CCC(O)C2)cc1 (stereo not drawn) [EM-7365, reference compound] | 24% | – | – | IC50 ([1]; DHT (0.3 nM)-stimulated cell number, read-out: Shionogi Antiandrogenic Activity IC50): 6 nM
CC1(C)C(=O)N(c2ccc(C#N)c(C(F)(F)F)c2)C(=S)N1CCCOc1ccc(-c2cccnc2)cc1 [EM-8840] | – | 1090 ± 500 (n = 2) % | 24 ± 6 | –
CC1(C)C(=O)N(c2ccc(C#N)c(C(F)(F)F)c2)C(=S)N1CCCOc1ccc(-c2ccncc2)cc1 [EM-8841] | – | 1200 ± 330 (n = 2) % | 73 ± 5 | –
CC1(C)C(=O)N(c2ccc(C#N)c(C(F)(F)F)c2)C(=S)N1CCCOc1ccc(-c2ccncc2)c(F)c1 [EM-8851] | 3310% and 3310 ± 1780 (n = 2) % | – | 77 ± 20 | –
CC1(C)C(=O)N(c2ccc(C#N)c(C(F)(F)F)c2)C(=S)N1CCCOc1cccc(-c2ccncc2)c1 [EM-8871] | – | 558 ± 102 (n = 2) % | 66 | –
CC1(C)C(=O)N(c2ccc(C#N)c(C(F)(F)F)c2)C(=S)N1CCCOc1ccc(-c2ccncc2)cc1F [EM-8872] | – | 723 ± 59 (n = 2) % | 36 | –
CC1(C)C(=O)N(c2ccc(C#N)c(C(F)(F)F)c2)C(=S)N1CCCOc1ccc(-c2ccncc2)c(Cl)c1 [EM-8888] | 1880 ± 1040 (n = 2) % | – | – | IC50 ([1]; Mus musculus, DHT (0.3 nM)-stimulated cell number, read-out: Shionogi Antiandrogenic Activity IC50): 111 nM
CC1(C)C(=O)N(c2ccc(C#N)c(C(F)(F)F)c2)C(=S)N1CCCOc1ccc(-c2ccncc2)c(C(F)(F)F)c1 [EM-8890] | 59 ± 25 (n = 2) % | – | 13.2 | –
CC1(C)C(=O)N(c2ccc(C#N)c(C(F)(F)F)c2)C(=S)N1CCCOc1ccc(-c2ccncc2)cc1C(F)(F)F [EM-8900] | – | 130 ± 60 (n = 2) % | 2.6 to 4.3 | stimulation at 10^−7M on basal Shionogi cell proliferation (in words) ([1]; basal (no DHT), 10^−7M): none of these compounds has any activity; IC50 ([1]; read-out: Shionogi Antiandrogenic Activity IC50, DHT (0.3 nM)-stimulated cell number): 3.8 nM
Cc1c(N2C(=O)N(CCCOc3ccc(-c4ccncc4)cc3F)C(C)(C)C2=O)ccc(C#N)c1F [EM-9204] | 22% | – | – | –
Cc1c(N2C(=O)N(CCCOc3ccc(-c4cc[n+]([O-])cc4)c(F)c3)C(C)(C)C2=O)ccc(C#N)c1F [EM-9208] | 2.2% | – | – | –
CC1(C)C(=O)N(c2ccc(C#N)c(Cl)c2)C(=O)N1CCCOc1ccc(-c2cc[n+]([O-])cc2)cn1 [EM-9225] | – | – | – | Human Androgen Receptor Binding RBA (%) R1881 = 100 (Human Androgen Receptor): 0.8%
CC1(C)C(=O)N(c2ccc(C#N)c(Cl)c2)C(=O)N1CCCOc1ccc(-c2ccncc2)cc1Cl.Cl [EM-9287] | – | 125 ± 9 (n = 3) % | – | –
CC1(C)C(=O)N(c2ccc(C#N)c(Cl)c2)C(=O)N1CCCOc1ccc(-c2cc[n+]([O-])cc2)cc1Cl.Cl [EM-9288] | – | 24 ± 8 (n = 2) % | – | –
Cc1c(N2C(=O)N(CCCCc3ccc(-c4ccncc4)cc3)C(C)(C)C2=O)ccc(C#N)c1Cl [EM-9336] | – | 32.3% | – | CX Agonistic activity % Stimulation Bulbo [2]: 59%; CX Agonistic activity % Stimulation SV [2]: 8%; CX Agonistic activity % Stimulation Prostate [2]: 27%
Cc1c(N2C(=O)N(CCOc3ccc(-c4ccncc4)cc3)C(C)(C)C2=O)ccc(C#N)c1Cl [EM-9337] | – | 28.3% | – | CX Agonistic activity % Stimulation Bulbo [2]: 95%; CX Agonistic activity % Stimulation SV [2]: 17%; CX Agonistic activity % Stimulation Prostate [2]: 33%
Cc1c(N2C(=O)N(CCOc3ccc(-c4cc[n+]([O-])cc4)cc3)C(C)(C)C2=O)ccc(C#N)c1Cl [EM-9339] | – | 4.0% | – | CX Agonistic activity % Stimulation Bulbo [2]: 68%; CX Agonistic activity % Stimulation SV [2]: 12%; CX Agonistic activity % Stimulation Prostate [2]: 27%
CC(C)(O)C(=O)Nc1ccc([N+](=O)[O-])c(C(F)(F)F)c1 [OH-FLU, hydroxyflutamide, reference compound] | 0.21 ± 0.09 (n = 3) % | – | – | Human Androgen Receptor Binding RBA (%) R1881 = 100 (Human Androgen Receptor; relative binding affinity, R1881 = 100, transfected cells, listed as hydroxyflutamide): 0.21%

— patent publication US9682960B2 (priority 2013, dated 2017)
